This is an account of results in ChEMBL document CHEMBL5465560, “Selectivity Literature for EUbOPEN Chemogenomic Library” (2024).

Experiment [1] concerns the target CDK9/Cyclin K (Homo sapiens) (UniProt P50750+O75909). As to the kind of experiment: Selectivity interaction (LanthaScreen Eu Kinase Binding Assay) EUB0001632a CDK9. In kind it is protein-complex assay. Particulars: at 10 µM. For orientation: Time-resolved FRET reads energy transfer from a long-lived donor to a nearby acceptor.
Experiment [2] deals with T1, Serine/threonine-protein kinase Nek8 (Homo sapiens) (UniProt Q86SG6).
T1 sequence (whole entry): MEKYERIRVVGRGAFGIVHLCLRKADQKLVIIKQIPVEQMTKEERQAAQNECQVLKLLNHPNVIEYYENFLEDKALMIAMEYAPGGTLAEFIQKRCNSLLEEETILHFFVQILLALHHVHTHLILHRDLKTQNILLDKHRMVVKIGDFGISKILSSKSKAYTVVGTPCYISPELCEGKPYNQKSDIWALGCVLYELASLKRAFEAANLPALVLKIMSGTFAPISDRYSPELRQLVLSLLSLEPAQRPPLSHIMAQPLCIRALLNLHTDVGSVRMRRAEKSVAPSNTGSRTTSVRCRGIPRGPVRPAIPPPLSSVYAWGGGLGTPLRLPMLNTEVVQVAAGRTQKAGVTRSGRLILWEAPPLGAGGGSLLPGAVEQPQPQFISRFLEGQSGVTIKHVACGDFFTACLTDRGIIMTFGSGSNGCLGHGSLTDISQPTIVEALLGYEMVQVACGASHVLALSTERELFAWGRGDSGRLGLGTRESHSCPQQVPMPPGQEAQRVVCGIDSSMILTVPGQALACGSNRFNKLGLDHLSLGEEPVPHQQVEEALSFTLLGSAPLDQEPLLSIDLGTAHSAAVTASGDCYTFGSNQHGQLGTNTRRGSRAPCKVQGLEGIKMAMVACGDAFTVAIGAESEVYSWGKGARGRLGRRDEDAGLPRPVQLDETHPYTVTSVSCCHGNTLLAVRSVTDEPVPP
As to the kind of experiment: Selectivity interaction (LanthaScreen Eu Kinase Binding Assay) EUB0001632a NEK8. The following applies: at 10 µM.

In a further experiment the target is Ephrin type-A receptor 4 (Homo sapiens, UniProt P54764). As to the kind of experiment: Selectivity interaction (KinomeScan (DiscoverX)) EUB0000607a EPHA4. The following applies: at 10 µM.
Chain of Ephrin type-A receptor 4 (P54764 whole entry): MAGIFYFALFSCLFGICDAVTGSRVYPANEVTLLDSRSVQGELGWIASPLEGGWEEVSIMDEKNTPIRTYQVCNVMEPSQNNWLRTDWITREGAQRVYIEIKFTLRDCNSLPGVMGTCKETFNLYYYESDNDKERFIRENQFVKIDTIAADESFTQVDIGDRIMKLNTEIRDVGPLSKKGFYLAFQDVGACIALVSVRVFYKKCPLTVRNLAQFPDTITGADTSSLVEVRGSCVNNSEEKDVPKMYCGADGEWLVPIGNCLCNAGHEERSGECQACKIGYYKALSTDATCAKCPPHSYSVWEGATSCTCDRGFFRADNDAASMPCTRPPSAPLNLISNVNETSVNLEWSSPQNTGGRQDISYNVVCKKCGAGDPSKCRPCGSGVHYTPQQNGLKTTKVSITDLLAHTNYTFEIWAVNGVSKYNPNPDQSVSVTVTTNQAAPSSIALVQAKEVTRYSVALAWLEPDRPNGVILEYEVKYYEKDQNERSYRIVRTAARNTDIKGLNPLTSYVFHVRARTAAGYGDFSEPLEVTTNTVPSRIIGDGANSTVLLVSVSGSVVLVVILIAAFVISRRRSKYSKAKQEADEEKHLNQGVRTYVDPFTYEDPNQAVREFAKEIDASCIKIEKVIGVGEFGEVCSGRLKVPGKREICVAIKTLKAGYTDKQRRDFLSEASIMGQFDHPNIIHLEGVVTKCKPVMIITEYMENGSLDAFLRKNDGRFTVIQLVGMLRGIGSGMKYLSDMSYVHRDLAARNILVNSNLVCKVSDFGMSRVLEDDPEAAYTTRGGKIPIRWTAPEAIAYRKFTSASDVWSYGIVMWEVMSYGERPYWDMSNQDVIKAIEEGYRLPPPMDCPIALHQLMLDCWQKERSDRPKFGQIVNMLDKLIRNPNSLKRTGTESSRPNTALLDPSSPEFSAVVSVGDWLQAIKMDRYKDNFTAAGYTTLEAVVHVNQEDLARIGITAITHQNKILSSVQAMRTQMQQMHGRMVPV
Experiment [3] deals with T2, Serine/threonine-protein kinase haspin (Homo sapiens) (UniProt Q8TF76).
T2 sequence (whole entry): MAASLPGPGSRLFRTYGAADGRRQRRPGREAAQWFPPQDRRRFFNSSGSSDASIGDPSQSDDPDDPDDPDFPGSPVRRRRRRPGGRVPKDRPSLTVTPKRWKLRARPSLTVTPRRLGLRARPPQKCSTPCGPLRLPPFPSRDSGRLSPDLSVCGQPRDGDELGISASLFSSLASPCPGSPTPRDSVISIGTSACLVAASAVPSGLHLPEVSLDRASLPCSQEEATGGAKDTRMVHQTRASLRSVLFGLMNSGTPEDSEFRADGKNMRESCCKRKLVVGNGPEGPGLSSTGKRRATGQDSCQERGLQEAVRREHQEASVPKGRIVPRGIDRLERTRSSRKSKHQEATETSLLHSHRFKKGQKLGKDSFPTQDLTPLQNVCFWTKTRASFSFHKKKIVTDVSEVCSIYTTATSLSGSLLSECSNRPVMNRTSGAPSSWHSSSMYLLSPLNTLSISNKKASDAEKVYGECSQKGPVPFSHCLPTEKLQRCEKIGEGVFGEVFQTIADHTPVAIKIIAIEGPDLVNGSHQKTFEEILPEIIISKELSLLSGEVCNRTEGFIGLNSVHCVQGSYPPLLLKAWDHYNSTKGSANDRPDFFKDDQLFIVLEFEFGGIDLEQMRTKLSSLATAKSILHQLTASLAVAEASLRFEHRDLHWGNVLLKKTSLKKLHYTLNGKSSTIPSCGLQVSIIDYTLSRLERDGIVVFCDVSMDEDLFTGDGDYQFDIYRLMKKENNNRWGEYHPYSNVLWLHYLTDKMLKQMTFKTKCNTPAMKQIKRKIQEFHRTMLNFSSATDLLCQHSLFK
As to the kind of experiment: Selectivity interaction (KinomeScan (DiscoverX)) EUB0000607a GSG2. The following applies: at 10 µM.

For experiment [4], the target named is Glycogen synthase kinase-3 beta (Homo sapiens, UniProt P49841). As to the kind of experiment: Selectivity interaction (KinomeScan (DiscoverX)) EUB0000666a GSK3B. The following applies: at 10 µM.
Chain of Glycogen synthase kinase-3 beta (P49841 whole entry, looked up): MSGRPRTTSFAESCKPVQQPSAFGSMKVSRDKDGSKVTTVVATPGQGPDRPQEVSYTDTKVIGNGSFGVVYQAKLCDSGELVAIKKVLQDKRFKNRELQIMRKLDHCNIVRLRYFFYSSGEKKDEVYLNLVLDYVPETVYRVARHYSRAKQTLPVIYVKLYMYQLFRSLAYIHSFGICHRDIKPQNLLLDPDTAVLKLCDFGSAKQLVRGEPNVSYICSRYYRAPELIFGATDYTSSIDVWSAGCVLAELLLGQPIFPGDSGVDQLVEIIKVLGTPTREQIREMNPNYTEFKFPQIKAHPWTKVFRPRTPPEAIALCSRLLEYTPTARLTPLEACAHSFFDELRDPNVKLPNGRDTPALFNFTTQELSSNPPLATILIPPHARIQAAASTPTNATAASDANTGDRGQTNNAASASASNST
Experiment [5] concerns the target NT-3 growth factor receptor (Homo sapiens, UniProt Q16288). As to the kind of experiment: Selectivity interaction (KinomeScan (DiscoverX)) EUB0000666a NTRK3. The following applies: at 10 µM.
The target of experiment [6] is T2, Serine/threonine-protein kinase haspin (Homo sapiens). As to the kind of experiment: Selectivity interaction (Kinase panel (DSF assay)) EUB0001558a GSG2.
Experiment [7] deals with Ephrin type-A receptor 5 (Homo sapiens) (UniProt P54756). As to the kind of experiment: Selectivity interaction (Kinase panel (DSF assay)) EUB0001558a EPHA5. For orientation: Differential scanning fluorimetry follows unfolding on heating by fluorescence.
Chain of Ephrin type-A receptor 5 (Homo sapiens) (P54756 whole entry): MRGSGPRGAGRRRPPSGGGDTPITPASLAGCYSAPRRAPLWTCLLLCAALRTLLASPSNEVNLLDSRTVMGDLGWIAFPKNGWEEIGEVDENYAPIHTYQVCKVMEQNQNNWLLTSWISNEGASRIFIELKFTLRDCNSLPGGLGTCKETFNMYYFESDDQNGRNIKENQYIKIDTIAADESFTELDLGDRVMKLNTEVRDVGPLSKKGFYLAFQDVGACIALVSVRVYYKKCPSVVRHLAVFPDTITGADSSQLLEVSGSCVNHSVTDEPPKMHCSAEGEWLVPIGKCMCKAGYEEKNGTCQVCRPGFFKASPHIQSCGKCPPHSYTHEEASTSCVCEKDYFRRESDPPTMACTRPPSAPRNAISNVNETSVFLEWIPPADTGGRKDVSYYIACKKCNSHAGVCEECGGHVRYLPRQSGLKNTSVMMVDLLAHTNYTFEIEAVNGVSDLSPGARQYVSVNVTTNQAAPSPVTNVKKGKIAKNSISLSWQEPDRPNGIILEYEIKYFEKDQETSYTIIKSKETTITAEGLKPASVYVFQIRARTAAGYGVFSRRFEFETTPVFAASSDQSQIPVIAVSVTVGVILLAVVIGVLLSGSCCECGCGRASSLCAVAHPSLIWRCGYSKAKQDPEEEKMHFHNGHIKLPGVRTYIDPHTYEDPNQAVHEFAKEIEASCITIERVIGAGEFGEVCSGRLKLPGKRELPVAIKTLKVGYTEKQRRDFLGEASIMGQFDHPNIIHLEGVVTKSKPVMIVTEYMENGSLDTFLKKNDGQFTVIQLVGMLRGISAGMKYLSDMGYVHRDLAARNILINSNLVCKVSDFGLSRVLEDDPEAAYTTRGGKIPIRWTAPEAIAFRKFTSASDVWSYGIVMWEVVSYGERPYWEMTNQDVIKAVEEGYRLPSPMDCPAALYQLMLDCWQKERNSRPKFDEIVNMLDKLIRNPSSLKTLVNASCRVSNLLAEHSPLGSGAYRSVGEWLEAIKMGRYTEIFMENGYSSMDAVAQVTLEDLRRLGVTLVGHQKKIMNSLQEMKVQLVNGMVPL
The target in experiment [8] is Histone-lysine N-methyltransferase ASH1L (Homo sapiens) (UniProt Q9NR48). As to the kind of experiment: Selectivity interaction (Methyltransferase screen (Scintillation proximity assays)) EUB0000255b ASH1L. On the technique in general: In a scintillation proximity assay essentially only radioactivity close to the scintillant gives light.
Experiment [9] concerns the target Rho-associated protein kinase 2 (Homo sapiens, UniProt O75116). As to the kind of experiment: Selectivity interaction (KinomeScan (DiscoverX)) EUB0001079a ROCK2. Particulars: at 1 µM.
Experiment [10] deals with Sodium-dependent serotonin transporter (Homo sapiens, UniProt P31645). As to the kind of experiment: Selectivity interaction (Serotonin transporter site assay, human recombinant ) EUB0000877a SLC6A4.
Chain of Sodium-dependent serotonin transporter (P31645 whole entry): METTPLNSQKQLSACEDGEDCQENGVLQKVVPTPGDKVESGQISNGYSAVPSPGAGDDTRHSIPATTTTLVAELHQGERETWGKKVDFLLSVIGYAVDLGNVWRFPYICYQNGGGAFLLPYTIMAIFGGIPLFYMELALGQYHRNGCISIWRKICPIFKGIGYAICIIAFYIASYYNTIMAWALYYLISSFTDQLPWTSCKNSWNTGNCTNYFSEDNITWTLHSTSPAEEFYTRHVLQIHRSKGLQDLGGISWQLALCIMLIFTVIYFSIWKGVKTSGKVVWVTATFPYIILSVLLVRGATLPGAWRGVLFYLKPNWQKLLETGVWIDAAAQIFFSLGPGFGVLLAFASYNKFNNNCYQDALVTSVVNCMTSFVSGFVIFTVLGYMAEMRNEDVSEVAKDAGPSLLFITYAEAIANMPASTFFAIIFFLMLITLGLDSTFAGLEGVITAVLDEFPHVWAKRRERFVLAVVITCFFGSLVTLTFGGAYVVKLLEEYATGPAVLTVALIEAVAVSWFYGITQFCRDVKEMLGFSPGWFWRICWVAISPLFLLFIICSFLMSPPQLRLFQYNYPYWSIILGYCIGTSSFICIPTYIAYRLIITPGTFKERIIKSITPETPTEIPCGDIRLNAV
Experiment [11] deals with Tyrosine-protein kinase SYK (Homo sapiens, UniProt P43405). As to the kind of experiment: Selectivity interaction (Kinase panel (Invitrogen)) EUB0000639a SYK. Particulars: at 200 nM.
Experiment [12] concerns the target Dual specificity protein kinase CLK2 (Homo sapiens, UniProt P49760). Particulars: at 10 µM.
The target in experiment [13] is T3, Serine/threonine-protein kinase RIO1 (Homo sapiens) (UniProt Q9BRS2).
T3 sequence (whole entry): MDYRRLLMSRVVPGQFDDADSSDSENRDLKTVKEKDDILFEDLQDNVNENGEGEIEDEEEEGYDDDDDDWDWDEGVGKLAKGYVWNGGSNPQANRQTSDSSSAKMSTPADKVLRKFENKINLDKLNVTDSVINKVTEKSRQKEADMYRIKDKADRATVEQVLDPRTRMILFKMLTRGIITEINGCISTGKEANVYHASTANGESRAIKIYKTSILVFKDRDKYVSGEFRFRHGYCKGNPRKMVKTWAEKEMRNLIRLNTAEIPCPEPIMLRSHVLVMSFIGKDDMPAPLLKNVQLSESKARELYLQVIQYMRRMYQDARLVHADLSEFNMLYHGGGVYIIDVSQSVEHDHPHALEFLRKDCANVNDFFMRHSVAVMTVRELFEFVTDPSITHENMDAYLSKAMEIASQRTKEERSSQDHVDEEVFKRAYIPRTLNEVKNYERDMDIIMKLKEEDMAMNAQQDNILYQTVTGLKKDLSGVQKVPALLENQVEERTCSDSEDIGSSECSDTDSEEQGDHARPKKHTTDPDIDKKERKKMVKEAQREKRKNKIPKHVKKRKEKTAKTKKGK
As to the kind of experiment: Selectivity interaction (KinomeScan (DiscoverX)) EUB0000695a RIOK1. The following applies: at 100 nM.

The target in experiment [14] is Mitogen-activated protein kinase 14 (Homo sapiens, UniProt Q16539). As to the kind of experiment: Selectivity interaction (KinomeScan (DiscoverX)) EUB0000045b MAPK14.
Chain of Mitogen-activated protein kinase 14 (Q16539 whole entry): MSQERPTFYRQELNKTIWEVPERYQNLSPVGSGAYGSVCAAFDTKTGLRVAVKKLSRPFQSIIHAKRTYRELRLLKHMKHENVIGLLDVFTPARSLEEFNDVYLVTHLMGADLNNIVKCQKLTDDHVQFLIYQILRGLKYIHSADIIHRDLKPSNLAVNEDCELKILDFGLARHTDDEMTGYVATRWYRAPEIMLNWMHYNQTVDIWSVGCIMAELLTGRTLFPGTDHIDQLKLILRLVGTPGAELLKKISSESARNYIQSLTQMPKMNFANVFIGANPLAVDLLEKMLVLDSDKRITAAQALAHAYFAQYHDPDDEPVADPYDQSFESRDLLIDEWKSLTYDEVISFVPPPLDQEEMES

Chain of Dual specificity protein kinase CLK2 (P49760 whole entry, looked up): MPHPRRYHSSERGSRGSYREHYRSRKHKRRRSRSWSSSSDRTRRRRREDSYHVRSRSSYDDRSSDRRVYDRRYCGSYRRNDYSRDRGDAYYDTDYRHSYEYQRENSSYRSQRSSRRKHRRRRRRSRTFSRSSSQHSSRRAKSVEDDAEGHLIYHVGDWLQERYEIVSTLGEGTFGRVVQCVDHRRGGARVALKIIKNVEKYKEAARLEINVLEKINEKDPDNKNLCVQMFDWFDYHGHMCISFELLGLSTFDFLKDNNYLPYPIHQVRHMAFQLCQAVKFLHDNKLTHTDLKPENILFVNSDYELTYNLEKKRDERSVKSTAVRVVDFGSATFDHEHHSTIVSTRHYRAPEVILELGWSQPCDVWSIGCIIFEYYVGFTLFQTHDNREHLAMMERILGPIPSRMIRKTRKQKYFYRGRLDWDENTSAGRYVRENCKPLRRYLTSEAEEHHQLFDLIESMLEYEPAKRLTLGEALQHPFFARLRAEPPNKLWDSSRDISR
Chain of NT-3 growth factor receptor (Q16288 32-839 limits assumed): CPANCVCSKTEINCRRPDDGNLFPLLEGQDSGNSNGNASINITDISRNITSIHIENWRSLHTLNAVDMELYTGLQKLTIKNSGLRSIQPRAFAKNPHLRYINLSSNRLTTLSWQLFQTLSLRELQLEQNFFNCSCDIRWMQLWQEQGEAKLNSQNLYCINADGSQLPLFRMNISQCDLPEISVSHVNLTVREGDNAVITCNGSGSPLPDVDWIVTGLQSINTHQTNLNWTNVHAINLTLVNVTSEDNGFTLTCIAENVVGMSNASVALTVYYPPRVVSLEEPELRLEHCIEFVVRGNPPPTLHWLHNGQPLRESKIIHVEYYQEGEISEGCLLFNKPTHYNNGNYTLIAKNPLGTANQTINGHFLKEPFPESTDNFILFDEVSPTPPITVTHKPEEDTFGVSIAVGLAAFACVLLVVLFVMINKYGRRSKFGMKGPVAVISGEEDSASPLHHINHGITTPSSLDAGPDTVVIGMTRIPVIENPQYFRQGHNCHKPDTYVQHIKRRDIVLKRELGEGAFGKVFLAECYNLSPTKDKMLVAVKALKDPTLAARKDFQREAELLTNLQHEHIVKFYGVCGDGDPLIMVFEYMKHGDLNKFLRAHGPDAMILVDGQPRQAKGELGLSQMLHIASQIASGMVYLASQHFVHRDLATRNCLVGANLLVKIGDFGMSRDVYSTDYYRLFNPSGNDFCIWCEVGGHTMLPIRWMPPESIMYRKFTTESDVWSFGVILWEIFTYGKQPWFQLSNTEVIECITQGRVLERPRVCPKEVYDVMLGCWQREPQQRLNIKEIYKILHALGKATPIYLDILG

Regarding `Cn1cc(-n2cnc3c(NCc4nc5cc(Cl)c(Cl)cc5[nH]4)nc(N4CCOCC4)nc32)cn1`, the results for the % of inhibition in experiment [1] and in experiment [2] were -32.1% and -38.3%, respectively.
On to `CNC(=O)Nc1ccc(-c2nc(N3CC4CCC(C3)O4)c3cnn(C4CCC5(CC4)OCCO5)c3n2)cc1`, for which the % of control (at Ephrin type-A receptor 4; in [3]) was 100% in each case.
For `O=C(NOC[C@H](O)CO)c1ccc(F)c(F)c1Nc1ccc(I)cc1F`, the % of control was 68% in experiment [4] and 93% in experiment [5].
Consider `CC(C)(O)[C@H](F)CN1Cc2cc(NC(=O)c3cnn4cccnc34)c(N3CCOCC3)cc2C1=O`, for which the dTM in experiment [6] was determined as 0.4 K; in experiment [7], 2.4 K.
As to `COCCN1CCC(c2cc(CN(C)C(=O)c3cccc(Oc4ccccc4)c3)ccn2)CC1`, the % activity in [8] (at 1 µM) is greater than 95%; in experiment [8] (at 10 µM), greater than 90%.
`Nc1cnc(N2CCc3cc(S(=O)(=O)Nc4c(F)cc(Cl)cc4F)cc(N4CCCC4=O)c32)nc1` [TP-020n] returned a % of control in experiment [9] of 100%.
For `CCC(=O)N1CC[C@H](Nc2ncnc3c2CN(c2cnc(OC)c(C(F)(F)F)c2)CC3)C1` [LENIOLISIB], the IC50 in [10] was greater than 30 µM.
With `CC[C@@H]1[C@H](F)C(=O)N[C@@H]1COc1nccc2cc(C(N)=O)c(OC)cc12` [ZIMLOVISERTIB], the % of inhibition in [11] was 9.07%.
As to `CCN(CC)CCCCNc1ncc2cc(-c3cc(OC)cc(OC)c3)c(NC(=O)NC(C)(C)C)nc2n1`, the % of control in experiment [12] stood at 100%.
`Cc1cc(F)c(C(=O)Nc2cccc(-c3nncn3C(C)C)n2)cc1-n1cnc(C2CC2)c1`: in experiment [13], the % of control amounted to 100%.
With `C=CC(=O)Nc1cc(-n2c(=O)ccc3cnc4ccc(-c5ccc(NS(C)(=O)=O)cc5)cc4c32)ccc1C`, the % of control turned out to be 98% in [14] (at 1 µM) and 100% in experiment [14] (at 10 µM).

As a reminder, the IC50 is the concentration that gives 50% inhibition.
